Assay results from PubChem BioAssay (NCI).
Several values for one entry are separate records, joined by “and”; a condition that tells them apart may be missing. Equal values may be shown once.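 A five-concentration, 48-hour dose response in 96-well plates underlies each endpoint, interpolated linearly between surrounding concentrations. The concentration for 50% growth inhibition is given as GI50. Definition used: TGI = concentration required for complete inhibition of growth.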

Experiments:
Assay in all cases: NCI anticancer screen, dose series, 48 h
HL-60(TB) leukemia = system: HL-60(TB) leukemia
SN12C renal = system: SN12C renal
UO-31 renal = system: UO-31 renal
HCT-116 colon = system: HCT-116 colon
K-562 leukemia = system: K-562 leukemia
SF-268 CNS = system: SF-268 CNS
HCT-15 colon = system: HCT-15 colon
SR leukemia = system: SR leukemia
MCF7 breast = system: MCF7 breast
DU-145 prostate = system: DU-145 prostate

Row | Compound | GI50 (HL-60(TB) leukemia) [µM] | TGI (HL-60(TB) leukemia) [µM] | GI50 (SN12C renal) [µM] | TGI (SN12C renal) [µM] | GI50 (UO-31 renal) | TGI (UO-31 renal) [µM] | GI50 (HCT-116 colon) [µM] | TGI (HCT-116 colon) [µM] | GI50 (K-562 leukemia) [µM] | TGI (K-562 leukemia) [µM] | GI50 (SF-268 CNS) [µM] | TGI (SF-268 CNS) [µM] | GI50 (HCT-15 colon) [µM] | TGI (HCT-15 colon) [µM] | TGI (SR leukemia) [µM] | GI50 (MCF7 breast) [µM] | TGI (MCF7 breast) [µM] | GI50 (SR leukemia) [µM] | GI50 (DU-145 prostate) [µM] | TGI (DU-145 prostate) [µM]
1 | N.N.O=P([O-])([O-])C1(P(=O)([O-])[O-])CCCCCN1.[Pt+2] | > 100 | > 100 | > 100 | > 100 | > 100 µM | > 100 | > 100 | > 100 | > 100 | > 100 | 76.6 | > 100 | > 100 | > 100 |  |  |  |  |  | 
2 | O=C(CCC(=O)C1CCC/C1=N/O)Nc1ccc(Cl)cc1 (centres undefined) |  | > 100 |  | > 100 |  | > 100 |  | > 100 |  | > 100 |  | > 100 |  | > 100 | > 100 |  |  |  |  | 
3 | CC#Cc1nc(Nc2cc(C)[nH]n2)c2ccccc2n1 |  |  | 3.08 | 10.4 | 7.6 µM and 2.42 µM | 14.5 | 3.66 | 39.4 | 11.7 | > 100 | 4.66 | 20.5 | 2.75 | 12.8 | > 100 | 3.32 | 95.7 | 5.07 | 7.47 | 55
4 | O=C(CCCCC(=O)N/N=C\c1ccccc1O)N/N=C\c1ccccc1O | 3.07 | > 100 | 4.5 | > 100 |  |  | 3.69 | > 100 | 3.92 | > 100 | 1.72 | > 100 | 2.02 | > 100 | > 100 |  |  | 2.84 | 5.22 | > 100
5 | CC(=O)[O-].O=C([CH-]C(=O)c1ccccc1)c1ccccc1.O=C([CH-]C(=O)c1ccccc1)c1ccccc1.[Sm+3] | 1.66 | 7.08 | 6.23 | 24.8 | 3.79 µM | 12.5 | 5.05 | 18.2 | 3.68 | 27.4 | 3.39 | 24.5 | 5.5 | 22.5 |  |  |  |  |  | 
6 | O=C1C(Cl)=C(Nc2cccc(O)c2)C(=O)N1Cc1ccc(Cl)cc1Cl |  |  | 2.67 | 15.1 | 1.87 µM | 14.5 | 2.01 | 12.4 | 4.81 | 29.7 | 6.09 | 21.9 | 7.45 | 22.6 | 11.9 | 10.9 | 30.7 | 1.88 | 11.3 | 24.2
7 | Cn1cccc1/C=C/c1cc(Br)c(/C=C/c2cccn2C)cc1Br |  | 32.4 |  | 72.4 |  | 48 |  | 43.4 |  | 43.9 |  | 91.9 |  | 24.6 |  |  |  |  |  | 
8 | Cc1ccc(C(=O)CC2=Nc3nnc(CCCCCCCc4nnc5n4C(=O)C(CC(=O)c4ccc(C)cc4)=N5)n3C2=O)cc1 |  | > 100 |  | > 100 |  | > 100 |  | > 100 |  | > 100 |  | > 100 |  | > 100 | > 100 |  |  |  |  | 
9 | COc1ccccc1C(=O)N(C)c1ccc(Cl)c(C(=O)OC(C)C)c1 |  |  |  | > 100 |  | > 100 |  | > 100 |  |  |  | > 100 |  | > 100 |  |  | > 100 |  |  | > 100
10 | CC1(C)CC(N(C(=O)/C=C/c2ccc([N+](=O)[O-])o2)C2CCCCC2)CC(C)(C)N1 |  | 6.4 |  | 18.9 |  | 24.5 |  | 12 |  |  |  | 20.5 |  | 20.2 | 21.2 |  |  |  |  | 
11 | CC(C)=CC(=O)Cc1nc2ccc([N+](=O)[O-])cc2[nH]c1=O |  | > 100 |  | > 100 |  | > 100 |  | > 100 |  | > 100 |  | > 100 |  | > 100 |  |  |  |  |  | 
12 | COc1ccc2ccc3oc([N+](=O)[O-])cc3c2c1 |  |  | 0.311 | 5.32 |  |  | 0.189 | 1.21 | 0.259 | > 100 | 0.201 | 1.69 | 0.218 | 1.27 | 11.7 | 0.226 | 2.34 | 0.0827 | 0.123 | 2.14
13 | C=CC1=C(C)C2=NC1=CC1=NC(=C(CC)/C1=C\O)C=C1N=C3C(=C1C)C(=O)[C@H](C(=O)OC)C3=C1NC(=C2)[C@@H](C)[C@@H]1CCC(=O)O |  | 92.3 |  | > 100 |  | > 100 |  | > 100 |  | > 100 |  | > 100 |  | > 100 |  |  | > 100 |  |  | > 100
14 | COc1cc(NC(=O)C2=C(N3CCOCC3)/C(=C/c3ccc(Cl)cc3)CC2)cc(OC)c1OC | > 100 | > 100 | 94.3 | > 100 | 20.8 µM | > 100 | 28.5 | > 100 | > 100 | > 100 | 20 | > 100 | > 100 | > 100 |  | > 100 | > 100 |  | > 100 | > 100
15 | COC(=O)c1nn(C(=N)c2ccc(Cl)cc2)c2c1CCC2 |  | > 100 |  | > 100 |  | > 100 |  | > 100 |  | > 100 |  | > 100 |  | > 100 | 92.3 |  |  |  |  | 
16 | Brc1cc2c(cc1Br)CN(c1ccccc1)C2 |  | > 100 |  | > 100 |  | > 100 |  | > 100 |  | > 100 |  | > 100 |  | > 100 |  |  |  |  |  | 
17 | O=NN(CCCl)C(=O)NC1CCC(CC2CCC(NC(=O)N(CCCl)N=O)CC2)CC1 (centres undefined) |  | > 100 |  | > 73.5 |  | 99.9 |  | > 100 |  | > 100 |  | > 52.4 |  | > 76.9 | 88.7 |  |  |  |  | 
18 | COc1cc2c3c(n(C)c(=O)c2cc1OC)-c1cc2c(cc1/C3=C\CCNCCCN)OCO2 | 0.927 | 8.03 | 1.18 | 8.41 | 42.5 µM | > 100 | 1.49 | 3.39 | 2.08 | 12.1 | 2.43 | 11.8 | 16.9 | 39.6 |  | 2.77 | 13.4 |  |  | 
19 | CN(C)C(=O)Oc1c(-c2ccccc2)c(=O)n2c3ccccc3n3c(=O)n(C)c(=O)c1c23 |  |  |  | > 100 |  | > 100 |  | > 100 |  |  |  | > 100 |  | > 100 | > 100 |  |  |  |  | 
20 | C[C@]12CCC(=O)C=C1CC[C@@H]1C2CC[C@]2(C)c3nn(-c4ccccc4)nc3CC12 (some centres undefined) |  | > 100 |  | > 100 |  | > 100 |  | > 100 |  | > 100 |  | > 100 |  | > 100 |  |  |  |  |  | 
